Test results published in publication PMC4937332 (2016).

System: T8A7 (in solution, with anchor) (RNA, riboswitch) GGGGAACAAACAUUCAAAAUAAUAACACAAGAUAUGAGCGAAUGACAGCAAGGGGAGAGACCUGACCGAAAACCUCGGGAUACAGGCGCCGAAGGAGCAAACUGCGGAGUGAAUCUCUCAGGCAAAAGAACUCUUGCUCGACGCAACUCUGGAGAGUGUUUGUGCGGAUGCGCAAACCACCAAAGGGGACGUCUUUGCGUAUGCAAAGUAAACUUUCAGGUGCCAGGACAGAGAAGAAGGACGGGUCCAGCUGCUUCGGCAGCUGUUGAGUAGAGUGUGAGCUUCUCU
Assay: in-solution fluorescence titration, Spinach/DFHBI-1T turn-off
Conditions: 125 mM K+, 20 mM Mg2+; apparent; 50 mM Tris pH 8.31, 20 µM DFHBI-1T

`NCC(=O)O` gave a KD of 71 ± 4 µM.
